Source: ChEMBL document CHEMBL1158144, “Cacalol derivatives from Roldana angulifolia” (J Nat Prod, 2006)

Columns and labels:
Format in all cases: functional, cell-based
K562 = test: Cytotoxicity against human K-562 cells
SK-LU-1 = test: Cytotoxicity against human SKLU1 cells
U-251 = test: Cytotoxicity against human U251 cells
MCF7 = test: Cytotoxicity against human MCF7 cells
HCT-15 = test: Cytotoxicity against human HCT-15 cells
PC-3 = test: Cytotoxicity against human PC-3 cells

Measured: IC50

COc1c2c(c(C=O)c3c(COC(C)=O)coc13)[C@@H](C)CC=C2
> 10 µM: all assays above

COc1c2c(c(C=O)c3c(CO)coc13)[C@@H](C)CC=C2
> 10 µM: all assays above

COc1c2c3c(c4c(COC(C)=O)coc14)C(=O)OC[C@H]3CC=C2 [ANGULIFOLIDE]
> 10 µM: all assays above
